Reference: US4159328A, “Tetrahydro-1,3,5-thiadiazin-4-one derivative” (Nihon Nohyaku Co., Ltd., priority 1977, dated 1979)
Where two headings read alike, the source gives them in different places.

Legend:
[1] = tested on: 5th-instar larvae of brown planthopper; test: mortality in 7 days after spraying on 5th-instar larvae of brown planthopper; format: in vivo; details: Nilaparvata lugens, 168 h; for mortality at 100 ppm: 5th-instar larvae, 7 days
[2] = tested on: larvae of white-backed planthopper (Sogatella furcifera Horvath); test: Test Example 2: insecticidal activity against larvae of white-backed planthopper; format: in vivo; details: 168 h
Method in brief: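 Rice seedlings at 1.5-leaf stage were dipped 30 s in 400 ppm test composition, air-dried, and infested with five first-instar larvae. Tubes were held at 25°C, and mortality was scored at 7 days from triplicate tests.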

[3] = tested on: larvae of green rice leafhopper (Nephotettix cincticeps Uhler); test: Test Example 5: activity against larvae of green rice leafhopper; format: in vivo; details: 168 h
Method in brief: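 Rice seedlings at 1.5 leaf age dipped 30 seconds in 400 ppm test composition, air-dried, then infested with five second-instar larvae. Kept at 25° C; mortality scored seven days after treatment, three replicates.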

[4] = tested on: two-spotted spider mite (Tetranychus urticae Koch); test: Test Example 3: activity to two-spotted spider mite; format: in vivo; details: 120 h, 1,000 ppm, 5 days after treatment
Source text: Activity to two-spotted spider mite (Tetranychus urticae Koch).
Testing method: Two-spotted spider mites were set free on the pot-planted soybean in a greenhouse. On the next day, a test composition of 1,000 ppm concentration was sprayed over the soybean by means of a spray gun. Two days or five days after the treatment, dead-and-survival was inspected to calculate the mortality.

[5] = tested on: larvae of house mosquito (Culex pipiens pallens Coquillett); test: Test Example 6: insecticidal activity to larvae of house mosquito; format: in vivo; details: 120 h
Method in brief: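 Twenty first-instar Culex pipiens pallens larvae placed with feed in test composition diluted in deionized water to 10 ppm. Kept at 25 °C, and mortality counted five days after treatment.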

[6] = mammalian acute toxicity; details: mouse, in vivo, mice, male
Procedure: For example, 2-t-butylimino-3-isopropyl-5-phenyltetrahydro-1,3,5-thiadiazin-4-one (compound No. 145) and 2-t-butylimino-3-isopropyl-5-p-tolyltetrahydro-1,3,5-thiadiazin-4-one (compound No. 318) have LD50 (mice, male) of 10,000 mg/kg or higher. Many other compounds of this invention have LD50 (mice, male) of 5,000 mg/kg or higher.

[7] = tested on: larvae of 28-spotted lady beetle (Epilachna vigintioctopunctana Fabricius); test: Test Example 8: insecticidal activity against larvae of 28-spotted lady beetle; format: in vivo; details: 120 h
Method in brief: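 Tomato leaflets dipped 30 s in 100 ppm test composition, air-dried, and placed in Petri dishes with seven second-instar larvae at 25° C. Mortality scored five days after treatment, two replicates.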

[8] = tested on: larvae of brown planthopper (Nilaparvata lugens Stahl); test: Test Example 1: insecticidal activity against larvae of brown planthopper; format: in vivo; details: 120 h, third-instar larvae, 25° C., 5 days after treatment
Method in brief: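 Rice seedlings at 1.5-leaf stage were dipped for 30 s in a 400 ppm test composition, air-dried, and infested with third-instar N. lugens larvae. After holding at 25 °C, mortality was scored 5 or 7 days post-treatment from three replicates.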

[9] = tested on: cirrus red mite (Panonychus citri McGregor); test: Test Example 4: activity to citrus red mite (Rothamstead method); format: in vivo; set-up: concentration or dose not given beside the values; details: two days after treatment, 25° C.; 2880 min
Procedure: Activity to cirrus red mite (Panonychus citri McGregor).
Testing method: The test was performed by Rothamstead method. A test composition was sprayed by means of a spray gun over grapefruit leaves infested with citrus red mites. After air-drying the grapefruit was left standing in a constant temperature cabinet at 25° C. Two days after the treatment, the number of survived mites was counted to calculate the mortality.

[10] = tested on: larvae of diamond-back moth (Plutilla xylostella Linn'e); test: Test Example 10: insecticidal activity against larvae of diamond-back moth; format: in vivo; details: 400 ppm, first-instar larvae, three days; 4320 min
Source text: Insecticidal activity against larvae of diamond-back moth (Plutilla xylostella Linn'e). Testing method: A test composition of 400 ppm concentration was sprayed over the pot-planted chinese cabbage in a greenhouse by means of a spray gun. After air-drying, the chinese cabbage was infested with 10 first-instar larvae of diamond-back moth and was left standing in the greenhouse. Three days after the treatment, the dead-and-survival was inspected to calculate the mortality (3-replication test).

[11] = tested on: adult rust-red-flour beetle (Tribolium castaneum Herbst); test: Test Example 7: insecticidal activity to adult rust-red-flour beetle; format: in vivo; details: 24 h
Procedure: Insecticidal activity to adult rust-red-flour beetle (Tribolium castaneum Herbst).
Testing method: Into a 9-cm Petri dish covered on the bottom with a piece of filter paper, was introduced 7 ml of a test composition of 400 ppm concentration. Ten adult rust-red flour beetles were released in the Petri dish and left standing in a constant temperature cabinet at 25° C. After 24 hours, the dead-and-survival was inspected to calculate the mortality.

[12] = tested on: larvae of bug. (Togo hemipterus Scott); test: Test Example 9: insecticidal activity against larvae of bug; format: in vivo; details: 120 h
Procedure: Insecticidal activity against larvae of bug. (Togo hemipterus Scott).
Test method: Into a glass tube (1.6 cm in internal diameter and 9 cm in length), was added 1 ml of a test composition in 10 ppm concentration just to moisten the absorbent cotton. Five rice seeds and five first-instar larvae were introduced into the glass tube and the tube end was covered with a piece of Japanese paper. The glass tube was kept in a constant temperature cabinet at 25° C. Five days after treatment, the dead-and-survival was inspected to calculate the mortality (3-replication test).

| Structure (SMILES) | mortality at 200 ppm ([1]; read-out: mortality in 7 days after spraying) [%] | mortality at 400 ppm ([2]; 400 ppm, first-instar larvae, 25° C., seven days after treatment, read-out: Mortality) [%] | mortality at 400 ppm ([3]; 400 ppm, second-instar larvae, 25° C., seven days after treatment, read-out: Mortality) [%] | mortality at 1000 ppm [4] [%] | mortality at 10 ppm [5] [%] | LD50 [6] [mg/kg] | mortality at 100 ppm [1] [%] | mortality at 100 ppm [7] [%] | mortality at 400 ppm [8] [%] | Mortality [9] [%] | Mortality [10] [%] | mortality at 400 ppm [11] [%] | mortality at 10 ppm [12] [%] | mortality at 400 ppm [2] [%] | mortality at 400 ppm [3] [%] |
| --- | --- | --- | --- | --- | --- | --- | --- | --- | --- | --- | --- | --- | --- | --- | --- |
| CNC(=O)Oc1cccc2ccccc12 [NAC, 1-naphthyl N-methylcarbamate, reference compound] | 30 |  |  |  |  |  |  |  |  |  |  |  |  |  |  |
| Cc1ccc(N2CSC(=NC(C)(C)C)N(C(C)C)C2=O)cc1 [Compound 318, 2-t-Butylimino-3-isopropyl-5-(p-tolyl)-tetrahydro-1,3,5-thiadiazin-4-one] |  | 100 | 100 | 100 | 90 | ≥ 10000 | 100 | 100 | 100 |  |  |  |  |  |  |
| C=CCN1C(=O)N(c2cccc(Cl)c2)CSC1=NCc1ccccc1 [Compound 219] |  |  |  | 70 |  |  |  |  | 100 | 100 | 80 | 100 |  |  |  |
| CC(C)N1C(=O)N(c2ccccc2)CSC1=NC(C)(C)C [Compound 145, 2-t-Butylimino-3-isopropyl-5-phenyl-tetrahydro-1,3,5-thiadiazin-4-one] |  |  |  |  | 100 | ≥ 10000 | 100 | 100 |  | 100 |  |  | 100 | 100 | 100 |
